Experiments:
Kir 2.1 channel = molecular target: T1, Kir 2.1 channel (Homo sapiens, UniProt P63252); experiment: Kir channel current in HEK-Kir cells, voltage clamp method; format: cell-based; conditions: 100 μM Ba ions, FIG. 2A
T1 construct: expressed in transfected cells
T1 sequence (P63252 1-427): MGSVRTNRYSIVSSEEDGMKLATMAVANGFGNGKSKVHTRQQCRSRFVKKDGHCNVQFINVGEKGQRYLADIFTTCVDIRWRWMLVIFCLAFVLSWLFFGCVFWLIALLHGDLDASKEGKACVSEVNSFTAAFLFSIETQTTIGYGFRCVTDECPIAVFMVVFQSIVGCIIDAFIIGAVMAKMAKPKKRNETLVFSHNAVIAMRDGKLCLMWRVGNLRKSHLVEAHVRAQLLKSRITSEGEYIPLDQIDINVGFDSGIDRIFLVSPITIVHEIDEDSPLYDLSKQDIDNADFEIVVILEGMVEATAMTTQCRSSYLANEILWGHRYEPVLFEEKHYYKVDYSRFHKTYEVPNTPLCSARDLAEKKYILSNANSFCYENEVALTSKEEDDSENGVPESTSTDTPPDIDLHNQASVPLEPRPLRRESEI
Description: (§1) Human-derived embryonic kidney cells (HEK293 cells) were purchased from the Health Sciences Research Resource Bank (HSRRB). 10% FBS (Gibco Corp.) was added thereto followed by culturing at 37° C. in 5% CO2 in D-MEM medium (Wako Pure Chemical Industries, Ltd.) containing 100 U/ml penicillin (Wako Pure Chemical Industries, Ltd.) and 100 μg/ml streptomycin (Meiji Seika Kaisha, Ltd.). pcDNA/Kir 2.1, obtained by subcloning human-derived Kir 2.1 (NM_00891.2) in pcDNA3.1(+) (Invitrogen Corp.), was inserted using Lipofectamine 2000 reagent (Invitrogen Corp.) followed by culturing in medium obtained by adding 0.2 mg/ml Zeocin (Invitrogen Corp.) to the above-mentioned D-MEM medium and then cloning Zeocin resistant cells to produce Kir 2.1 constantly expressing cells (HEK-Kir). In addition, the inactivated mutant Nav-QQQ (HEK-Kir-mutated Nay) was inserted into the Kir 2.1 constantly expressing cells using the same method followed by conducting experiments 24 to 72 hours later.
Kir channel current was measured by applying the voltage clamp method to HEK-Kir cells.

HEK-Kir cells = experiment: Membrane potential of HEK-Kir cells, current clamp method; format: cell-based, human; conditions: 100 μM Ba ions, resting potential about −70 mV before, FIG. 2B
[1] = test system: HEK-Kir-mutated Nav cells; experiment: Cell death by electrical stimulation, MTT method, HEK-Kir-mutated Nav cells; format: cell-based, human; conditions: square wave 80 mA, 200 ms, three times at 3 min intervals, FIG. 6
Description: as §1, with “In addition, the inactivated mutant Nav-QQQ (HEK-Kir-mutated Nay) was inserted into the Kir 2.1 constantly expressing cells using the same method followed by conducting experiments 24 to 72 hours later.” left out
It was clearly determined from the results described in section 2 above that an extremely long action potential is generated in the mutant type Nav 1.5 channel. Since there is thought to be the possibility of cell death occurring when the action potential is generated by electrical stimulation, cell death attributable to electrical stimulation was measured. […] On the basis thereof, cell death was determined to occur in HEK-Kir-mutated Nav cells as a result of generating an extremely long action potential, while inhibition of Na ion channels blocked cell death.

[2] = test system: HEK-Kir-mutated Nav cells; experiment: DiBAC4(3) membrane potential fluorescence under high K+ stimulation in HEK-Kir-mutated Nav cells; format: cell-based, human; conditions: 1 mM lidocaine, extracellular K ion 5.9 mM to 15.3 mM, FIG. 17
Description: In the present example, a study was conducted on measurement of membrane potential using a membrane potential-sensitive dye in the form of DiBAC4(3), and using an extracellular solution containing K ions at a high concentration for depolarizing stimulation.
After loading two types of cells (HEK and HEK-Kir-mutated Nav cells) with 100 nM DiBAC4(3) (bis(1,3-dibutylbarbituric acid)trimethine oxanol) in normal HEPES buffer containing the dye for 30 minutes at room temperature, and fluorescence was measured at 520 nm or higher by exciting at 488 nm and reflecting with a dichroic mirror at 505 nm. In addition, high K^+ extracellular fluid having an increased K ion concentration was used as a stimulus to depolarize the cell membrane. This is because K ions are primarily involved in formation of resting membrane potential. […] In the present example, changes in fluorescence intensity of two types of cells were measured using this depolarizing stimulus. Furthermore, measurements were carried out based on a value of 1 for fluorescence intensity in the case of making the extracellular K ion concentration to be 140 mM K^+. The Argus/HiSCA high-speed, cooled CCD camera fluorescent imaging system (Hamamatsu Photonics K.K.) was used to measure fluorescence.

[Ba+2] [Ba ions]
inward Kir channel current (Kir 2.1 channel): inhibited | resting membrane potential (HEK-Kir cells): became shallow

CCN(CC)CC(=O)Nc1c(C)cccc1C [lidocaine]
occurrence of cell death attributable to electrical stimulation [1]: inhibited | changes in fluorescence caused by high K+ stimulation [2]: inhibited

Source: patent publication US9133496B2, “Material for screening for compound acting on ion channel and use thereof” (priority 2010, dated 2015)
